For this test, the system named is B6C3F1 mice, B16 melanoma ip, median survival T/C. Description: NCI In Vivo Anticancer Drug Screen. Data for tumor model B16 Melanoma (intraperitoneal) in B6C3F1 mice. Particulars: endpoint: median survival time, higher = longer survival. Put shortly: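 Transplantable tumor in mice; treated vs vehicle control groups; survival or tumor size measured; value = T/C ratio.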

Where [1] appears, read: dose: 12.5 mg/kg/injection, schedule: Q01DX009 (ip), vehicle: Klucel (hydroxypropylcellulose) (HPC).
The mark [2] stands for this setting: dose: 25.0 mg/kg/injection, schedule: Q01DX009 (ip), vehicle: Klucel (hydroxypropylcellulose) (HPC).
[3] abbreviates: dose: 50.0 mg/kg/injection, schedule: Q01DX009 (ip), vehicle: Klucel (hydroxypropylcellulose) (HPC).
[4] abbreviates: dose: 100.0 mg/kg/injection, schedule: Q01DX009 (ip), vehicle: Klucel (hydroxypropylcellulose) (HPC).
[5] abbreviates: dose: 200.0 mg/kg/injection, schedule: Q01DX009 (ip), vehicle: Klucel (hydroxypropylcellulose) (HPC).
[6] abbreviates: dose: 400.0 mg/kg/injection, schedule: Q01DX009 (ip), vehicle: Klucel (hydroxypropylcellulose) (HPC).
Setting [7] is: dose: 50.0 mg/kg/injection, schedule: Q01DX009 (ip), vehicle: water.
Where [8] appears, read: dose: 25.0 mg/kg/injection, schedule: Q01DX009 (ip), vehicle: saline with Tween-80.
[9] abbreviates: dose: 50.0 mg/kg/injection, schedule: Q01DX009 (ip), vehicle: saline with Tween-80.
The mark [10] stands for this setting: dose: 12.5 mg/kg/injection, schedule: Q01DX009 (ip), vehicle: saline.
The mark [11] stands for this setting: dose: 25.0 mg/kg/injection, schedule: Q01DX009 (ip), vehicle: saline.
Where [12] appears, read: dose: 100.0 mg/kg/injection, schedule: Q01DX009 (ip), vehicle: saline.
[13] abbreviates: dose: 6.25 mg/kg/injection, schedule: Q01DX009 (ip), vehicle: saline.
Where [14] appears, read: dose: 50.0 mg/kg/injection, schedule: Q01DX009 (ip), vehicle: saline.
[15] abbreviates: dose: 6.25 mg/kg/injection, schedule: Q01DX009 (ip), vehicle: Klucel (hydroxypropylcellulose) (HPC).

“And” between values parts separate entries of the source, which are not always exact repeats. Equal values may be shown once. Toxic doses and inconclusive results are not listed.

Regarding `C[C@]12CC[C@@H]3c4ccc(OC(=O)Cc5ccc(N(CCCl)CCCl)cc5)cc4CC[C@H]3[C@@H]1CC[C@@H]2OC(=O)Cc1ccc(N(CCCl)CCCl)cc1`, the T/C is 104 % of control under setting [1]; 92 % of control and 103 % of control under setting [2]; 121 % of control and 103 % of control under setting [3]; 90 % of control and 93 % of control under setting [4]; 104 % of control under setting [5]; 92 % of control and 103 % of control under setting [6].

With `CCCCNc1nc(N)nc(Nc2ccc(Br)cc2)c1N=O`, the T/C reads like this: under setting [3], 97 % of control; under setting [4], 92 % of control.

On to `COc1cccc2c1C(=O)c1c(O)c3c(c(O)c1C2=O)C[C@@](O)(C(O)CO)C[C@@H]3OC1CC(N(Cc2ccccc2)Cc2ccccc2)C(O)C(C)O1` (stereo partly drawn), for which the T/C runs as follows: (dose: 6.25 mg/kg/injection, schedule: Q01DX001 (ip), vehicle: water) 111 % of control; (dose: 50.0 mg/kg/injection, schedule: Q01DX001 (ip), vehicle: water) 166 % of control; under setting [7], 160 % of control; (dose: 100.0 mg/kg/injection, schedule: Q01DX001 (ip), vehicle: water) 196 % of control; (dose: 200.0 mg/kg/injection, schedule: Q01DX001 (ip), vehicle: water) 232 % of control.

Regarding `N=c1c(C(=O)OCc2ccccc2)ncc(CCl)n1O`, the T/C is 94 % of control under setting [8]; 95 % of control under setting [9]; 99 % of control (dose: 100.0 mg/kg/injection, schedule: Q01DX009 (ip), vehicle: saline with Tween-80).

Turning to `[Cl][Pt+2][Cl].[NH-]c1ccc(Cl)cc1[NH-]`, the T/C is 116 % of control (dose: 2.5 mg/kg/injection, schedule: Q01DX009 (ip), vehicle: saline with Tween-80) and 168 % of control (dose: 20.0 mg/kg/injection, schedule: Q01DX009 (ip), vehicle: saline with Tween-80).

Regarding `CN(CO)c1nc(N(C)CO)nc(N(C)CO)n1`, the T/C is 113 % of control and 115 % of control under setting [10]; 118 % of control under setting [11]; 153 % of control and 190 % of control under setting [12].

For the molecule `CCC(C(=O)O)C(=O)O.[NH2-].[NH2-].[Pt+2]`, the T/C (dose: 1.56 mg/kg/injection, schedule: Q01DX009 (ip), vehicle: saline) is 117 % of control; the T/C (dose: 3.12 mg/kg/injection, schedule: Q01DX009 (ip), vehicle: saline) is 102 % of control; the T/C under setting [13] is 102 % of control; the T/C under setting [11] is 154 % of control; the T/C under setting [14] is 102 % of control.

In the case of `CC1=NN(c2ccccc2)C(=O)C1N=Nc1ccccc1S(=O)(=O)O` (stereo not drawn), the T/C is, setting by setting: under setting [10], 104 % of control; under setting [11], 94 % of control; under setting [14], 96 % of control.

As to `CC1=NN(c2cccc(S(=O)(=O)O)c2)C(=O)C1N=Nc1cc(Cl)cc(S(=O)(=O)O)c1O.CC1=NN(c2cccc(S(=O)(=O)O)c2)C(=O)C1N=Nc1cc(Cl)cc(S(=O)(=O)O)c1O.[Cr]` (stereo not drawn), the T/C reads like this: under setting [14], 91 % of control; under setting [12], 91 % of control.

Consider `C=C1C(O)C2(O)OCC34C(CC5C(C)=CC(=O)C(O)C5(C)C23)OC(=O)C(OC(=O)C(C)(O)CC)C14` (stereo not drawn), for which the T/C was 89 % of control (dose: 0.13 mg/kg/injection, schedule: Q01DX009 (ip), vehicle: saline + alcohol); 110 % of control and 101 % of control (dose: 0.25 mg/kg/injection, schedule: Q01DX009 (ip), vehicle: saline + alcohol); 103 % of control (dose: 0.5 mg/kg/injection, schedule: Q01DX009 (ip), vehicle: saline + alcohol); 115 % of control (dose: 1.0 mg/kg/injection, schedule: Q01DX009 (ip), vehicle: saline + alcohol).

On to `Cc1nc2ccccc2c(C(=O)NO)[n+]1[O-]`, for which the T/C is 100 % of control (dose: 3.13 micrograms/kg/injection, schedule: Q01DX009 (ip), vehicle: other); 104 % of control (dose: 6.25 micrograms/kg/injection, schedule: Q01DX009 (ip), vehicle: other); 122 % of control (dose: 12.5 micrograms/kg/injection, schedule: Q01DX009 (ip), vehicle: other); 110 % of control (dose: 25.0 micrograms/kg/injection, schedule: Q01DX009 (ip), vehicle: other).

Regarding `Cc1ccc2c(c1)C1(C)OC(C=CC1=O)O2` (stereo not drawn), the T/C runs as follows: (dose: 3.12 mg/kg/injection, schedule: Q01DX009 (ip), vehicle: Klucel (hydroxypropylcellulose) (HPC)) 104 % of control; under setting [15], 115 % of control; under setting [1], 104 % of control; under setting [2], 112 % of control and 105 % of control.

With `O=CNCC(=O)O`, the T/C runs as follows: under setting [14], 91 % of control; under setting [12], 89 % of control.

For `O=NNc1cccnc1`, the T/C reads like this: (dose: 6.25 mg/kg/injection, schedule: Q01DX009 (ip), vehicle: water) 107 % of control; (dose: 12.5 mg/kg/injection, schedule: Q01DX009 (ip), vehicle: water) 121 % of control; (dose: 25.0 mg/kg/injection, schedule: Q01DX009 (ip), vehicle: water) 111 % of control; under setting [7], 100 % of control; (dose: 100.0 mg/kg/injection, schedule: Q01DX009 (ip), vehicle: water) 107 % of control.

With `CC1=CC(=Nc2ccc(N(CCCl)CCCl)cc2)C=C(C)C1=O`, the T/C reads like this: under setting [15], 150 % of control; under setting [1], 163 % of control and 176 % of control; under setting [2], 186 % of control.

For `CC(NC(=O)OCc1ccccc1)C(=O)NC(Cc1c[nH]c2ccccc12)C(=O)O` (stereo not drawn), the T/C reads like this: under setting [4], 95 % of control; under setting [5], 100 % of control; under setting [6], 89 % of control.

For `NCCSC(C[N+](=O)[O-])c1ccccc1Cl` (stereo not drawn), the T/C reads like this: under setting [13], 103 % of control; under setting [10], 114 % of control; under setting [11], 93 % of control.

Regarding `N#Cc1ccc(NC(=O)Nc2nncs2)cc1`, the T/C runs as follows: (dose: 12.5 mg/kg/injection, schedule: Q01DX009 (ip), vehicle: saline with Tween-80) 120 % of control and 105 % of control; under setting [8], 118 % of control and 107 % of control; under setting [9], 111 % of control.

For `COc1cc2c(cc1O)C1C(O)C(O)C=C3CCN(C2)C31` (stereo not drawn), the T/C is, setting by setting: (dose: 4.0 mg/kg/injection, schedule: Q01DX009 (ip), vehicle: saline + alcohol) 114 % of control; (dose: 8.0 mg/kg/injection, schedule: Q01DX009 (ip), vehicle: saline + alcohol) 100 % of control; (dose: 16.0 mg/kg/injection, schedule: Q01DX009 (ip), vehicle: saline + alcohol) 105 % of control; (dose: 32.0 mg/kg/injection, schedule: Q01DX009 (ip), vehicle: saline + alcohol) 102 % of control.

Turning to `COc1cc2c(c(OC)c1OC)-c1c(cc3c(c1OC)OCO3)CC(C)C(C)(O)C2OC(=O)c1ccccc1` (stereo not drawn), the T/C (dose: 25.0 mg/kg/injection, schedule: Q01DX009 (ip), vehicle: saline + Tween-80 + alcohol) was 107 % of control; the T/C (dose: 50.0 mg/kg/injection, schedule: Q01DX009 (ip), vehicle: saline + Tween-80 + alcohol) was 98 % of control; the T/C (dose: 100.0 mg/kg/injection, schedule: Q01DX009 (ip), vehicle: saline + Tween-80 + alcohol) was 115 % of control; the T/C (dose: 200.0 mg/kg/injection, schedule: Q01DX009 (ip), vehicle: saline + Tween-80 + alcohol) is 110 % of control.

With `c1cc(OCC2CO2)ccc1OCC1CO1` (stereo not drawn), the T/C under setting [1] is 109 % of control; the T/C under setting [2] is 121 % of control and 103 % of control; the T/C under setting [3] was 105 % of control; the T/C under setting [5] was 117 % of control.

With `CCCC1CCC(=C2C(=O)CCC2=O)O1` (stereo not drawn), the T/C is 103 % of control under setting [8] and 98 % of control under setting [9].

As for `CCCCNc1ccc2nnc(C)n2n1`, the T/C was 98 % of control and 102 % of control (dose: 50.0 mg/kg/injection, schedule: Q01DX009 (ip), vehicle: DMSO); 110 % of control and 92 % of control (dose: 100.0 mg/kg/injection, schedule: Q01DX009 (ip), vehicle: DMSO); 92 % of control (dose: 200.0 mg/kg/injection, schedule: Q01DX009 (ip), vehicle: DMSO).

Turning to `COc1cccc2c1C(=O)c1c(O)c3c(c(O)c1C2=O)C[C@@](O)(C(=O)CO)C[C@@H]3OC1CC(NC(=O)C(N)CC(C)C)C(O)C(C)O1` (stereo partly drawn), the T/C is, setting by setting: (dose: 6.25 mg/kg/injection, schedule: Q01DX001 (ip), vehicle: saline) 192 % of control; (dose: 12.5 mg/kg/injection, schedule: Q01DX001 (ip), vehicle: saline) 192 % of control; (dose: 25.0 mg/kg/injection, schedule: Q01DX001 (ip), vehicle: saline) 269 % of control; (dose: 50.0 mg/kg/injection, schedule: Q01DX001 (ip), vehicle: saline) 183 % of control.

The values above are taken from PubChem BioAssay AID200 (DTP/NCI, 2004).
